Entries after “also recorded” stand apart in the source; their conditions may differ.
Columns and labels:
[1] = molecular target: A/England/195/2009 (H1N1), M2/S31 (Influenza A virus, UniProt C3W5Z0, N31S); assay type: cell-based
[2] = tested on: A/Victoria/3/75 (H3N2, M2 WT); test: microbe, parasite or virus in culture; assay type: cell-based, influenza A
[3] = molecular target: S31N M2 transmembrane domain (residues 22–46) (Influenza A virus, UniProt P0DOF5, S31N); assay type: binding, influenza A (A/Udorn/307/72)

SMILES | block of inward proton currents (in words) [1] | EC50 ± SE [2] | EC50 ([2]; Influenza A virus, H3N2, MDCK) | decrease of tilt angle of the entire TMD helix [3] | helix tilt of S31N M2 TMD with drug [3]
NC12CC3CC(CC(C3)C1)C2 [Compound 1, amantadine] | well blocked | no detectable activity; also recorded: inactive | 3 ± 0.5 µM | – | –
CCCC1(N)C2CC3CC(C2)CC1C3 (stereo not shown) [Compound 6, 2-n-Propyltricyclo[3.3.1.1^3,7]decan-2-amine] | well blocked | – | – | 3 ° | ~33 °
NC1C2CC3CC(C2)CC1C3 (stereo not shown) [Compound 3] | well blocked | – | – | – | –

Reference: publication PMC4127532 (Journal of Medicinal Chemistry, 2014)
